Assay results taken from ChEMBL document CHEMBL4418495, “Entpd5 inhibitors” (2012).
Activity calls are given as the source filed them.

Tests used:
[1] = target: T1, Nucleoside diphosphate phosphatase ENTPD5 (Homo sapiens) (UniProt O75356); test: Inhibition of human recombinant ENTPD5 expressed in insect cells assessed as reduction in reduction in UDP hydrolysis by measuring inorganic phosphate release incubated for 1 hr by malachite green based assay
T1 sequence (whole entry): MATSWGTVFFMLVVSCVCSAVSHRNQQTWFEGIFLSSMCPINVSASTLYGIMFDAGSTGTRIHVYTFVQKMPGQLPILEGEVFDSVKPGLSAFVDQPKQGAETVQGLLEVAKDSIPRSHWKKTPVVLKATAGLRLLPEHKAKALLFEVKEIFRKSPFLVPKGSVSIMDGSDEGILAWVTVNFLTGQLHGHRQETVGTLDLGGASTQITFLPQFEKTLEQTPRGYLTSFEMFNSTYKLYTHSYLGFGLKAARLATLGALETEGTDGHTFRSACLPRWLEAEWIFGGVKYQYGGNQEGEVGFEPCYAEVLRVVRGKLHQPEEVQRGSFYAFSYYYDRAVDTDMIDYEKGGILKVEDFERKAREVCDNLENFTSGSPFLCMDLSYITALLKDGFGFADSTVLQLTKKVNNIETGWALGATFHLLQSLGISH

LNCaP [2] = test: Antitumor activity against human LNCAP cells xenografted in mouse assessed as induction of tumor shrinkage at 1 to 100 mg/kg, ip dosed every other day and measured after 6 weeks by microscopy; assay type: functional, organism-based
[3] = target: T2, Uridylate kinase (Escherichia coli (strain K12)) (UniProt P0A7E9); test: Inhibition of recombinant Escherichia coli UMP kinase pyrH catalyzed UMP phosphorylation in presence of GTP and ATP incubated for 1 hr by luminescence based assay
T2 sequence (whole entry): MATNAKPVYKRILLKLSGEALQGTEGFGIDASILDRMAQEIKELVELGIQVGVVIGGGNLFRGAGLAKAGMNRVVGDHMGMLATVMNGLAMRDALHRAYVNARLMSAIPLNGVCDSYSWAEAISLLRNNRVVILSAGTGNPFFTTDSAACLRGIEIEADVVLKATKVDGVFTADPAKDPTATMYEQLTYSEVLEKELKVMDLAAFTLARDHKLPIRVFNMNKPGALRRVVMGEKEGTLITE

[4] = target: T1, Nucleoside diphosphate phosphatase ENTPD5 (Homo sapiens); test: Inhibition of human recombinant ENTPD5 expressed in insect cells assessed as reduction in UDP hydrolysis at 1 uM incubated for 1 hr in presence of UMP, GTP and ATP by Escherichia coli UMP kinase pyrH catalyzed UMP phosphorylation coupled luciferase assay
[5] = target: T3, Ectonucleoside triphosphate diphosphohydrolase 5 (Mus musculus) (UniProt Q9WUZ9); test: Inhibition of ENTPD5 in PTEN knockout mouse MEF cells assessed as induction of ER stress by measuring increase in GRP78/BiP expression at 30 uM incubated for 24 hrs by Western blotting analysis; assay type: cell-based
T3 sequence (whole entry): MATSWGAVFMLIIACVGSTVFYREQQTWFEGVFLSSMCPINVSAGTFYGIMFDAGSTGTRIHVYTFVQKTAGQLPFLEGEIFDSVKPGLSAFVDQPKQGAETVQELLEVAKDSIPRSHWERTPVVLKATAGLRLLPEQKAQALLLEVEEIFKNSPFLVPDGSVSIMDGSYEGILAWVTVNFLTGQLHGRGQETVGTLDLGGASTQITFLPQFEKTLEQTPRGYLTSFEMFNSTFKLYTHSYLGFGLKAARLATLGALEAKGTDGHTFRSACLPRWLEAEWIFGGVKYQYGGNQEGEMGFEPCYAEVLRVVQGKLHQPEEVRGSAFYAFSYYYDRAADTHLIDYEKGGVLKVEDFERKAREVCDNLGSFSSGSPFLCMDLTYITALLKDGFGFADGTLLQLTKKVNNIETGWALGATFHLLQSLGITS

[6] = target: T1, Nucleoside diphosphate phosphatase ENTPD5 (Homo sapiens); test: Inhibition of human recombinant ENTPD5 expressed in insect cells assessed as reduction in UDP hydrolysis up to 10 uM incubated for 1 hr in presence of UMP, GTP and ATP by Escherichia coli UMP kinase pyrH catalyzed UMP phosphorylation coupled luciferase assay
LNCaP [7] = test: Antitumor activity against human LNCAP cells xenografted in mouse assessed as reduction in cells left in matrigels at 1 to 100 mg/kg, ip dosed every other day and measured after 6 weeks by hematoxylin and eosin staining based microscopy; assay type: functional, organism-based

Row | Structure (SMILES) | inhibition [1] | Activity (LNCaP [2]) | inhibition [3] | inhibition [4] | inhibition [5] | inhibition [6] | Activity (LNCaP [7])
1 | O=C1NC(=S)NC(=O)C1=Cc1ccc(-c2ccc(Cl)c(Cl)c2)o1 | Active | Active | inactive | Active | Active | Dose-dependent effect | Active
2 | N=C1S/C(=C\c2ccc(N3CCOCC3)cc2)C(=O)N1c1ccc(Br)cc1 | Active | Active | inactive | Active | Active | Dose-dependent effect | Active
3 | O=C1NC(=S)N(c2ccccc2)C(=O)/C1=C/c1cccn1-c1ccc(Cl)cc1 | Active | Active | inactive | Active | Active | Dose-dependent effect | Active
4 | Cc1cc(/C=C2\C(=O)NC(=S)N(c3ccc(Cl)cc3)C2=O)c(C)n1-c1ccc([N+](=O)[O-])cc1 | Active | Active | inactive | Active | Active | Dose-dependent effect | Active
5 | O=C1NC(=S)NC(=O)C1=Cc1ccc(-c2ccc(Br)cc2)o1 | Active | Active | inactive | Active | Active | Dose-dependent effect | Active
6 | O=C1NC(=S)N(c2ccccc2F)C(=O)/C1=C/c1cccn1-c1ccc(Br)cc1 | Active | Active | inactive | Active | Active | Dose-dependent effect | Active
7 | COc1ccc(/C=C2\SC(=S)N(c3ccc([N+](=O)[O-])cc3)C2=O)cc1O | Active | Active | inactive | Active | Active | Dose-dependent effect | Active
8 | O=C1/C(=C/c2ccc(O)c([N+](=O)[O-])c2)SC(=S)N1c1cccc(C(F)(F)F)c1 | Active | Active | inactive | Active | Active | Dose-dependent effect | Active
9 | O=C1NC(=O)N(c2ccc(F)cc2)C(=O)/C1=C/c1ccc(Sc2ccc(Cl)cc2)o1 | Active | Active | inactive | Active | Active | Dose-dependent effect | Active
10 | O=C1/C(=C/c2ccc(O)c([N+](=O)[O-])c2)SC(=S)N1c1cccc(Cl)c1 | Active | Active | inactive | Active | Active | Dose-dependent effect | Active
11 | Cc1cc(I)cc2c1NC(c1ccc([N+](=O)[O-])cc1)C1CC=CC21 (stereo not given) | Active | Active | inactive | Active | Active | Dose-dependent effect | Active
12 | O=C1NC(=O)N(c2ccc(I)cc2)C(=O)/C1=C/c1cnn(-c2ccccc2)c1 | Active | Active | inactive | Active | Active | Dose-dependent effect | Active
13 | N#CC1=C(c2ccco2)CC(c2ccccc2)NC1=S (stereo not given) | Active | Active | inactive | Active | Active | Dose-dependent effect | Active
14 | Cc1ccc2nc(Nc3nc(O)c(CCC(C)C)c(=O)[nH]3)nc(C)c2c1 | Active | Active | inactive | Active | Active | Dose-dependent effect | Active
15 | Cc1ccnc(NC(c2ccc3cccnc3c2O)c2sccc2C)c1 (stereo not given) | Active |  | inactive | Active |  | Dose-dependent effect | 
16 | O=C(NC(=S)Nc1cc(Cl)c(O)c(Cl)c1)c1cc2ccccc2o1 | Active |  | inactive | Active |  | Dose-dependent effect | 
17 | COc1ccc(-n2cccc2/C=C2\C(=O)NC(=S)N(c3ccc(C)c(C)c3)C2=O)cc1 | Active |  | inactive | Active |  | Dose-dependent effect | 
18 | O=C(Cn1cc(/C=C2\C(=O)NC(=O)N(Cc3ccccc3)C2=O)c2ccccc21)NCc1ccccc1 | Active |  | inactive | Active |  | Dose-dependent effect | 
19 | Cc1ccc(-c2cc(C(F)(F)F)c3c(N)c(C(=O)c4ccc5c(c4)OCO5)sc3c2)s1 | Active |  | inactive | Active |  | Dose-dependent effect | 
20 | COc1ccc2c(c1)C1C=CCC1C(c1ccc([N+](=O)[O-])cc1)N2 (stereo not given) | Active |  | inactive | Active |  | Dose-dependent effect | 
21 | O=S(=O)(c1ccc2ccccc2c1)N(CCc1csc2nc(-c3ccc4ccccc4c3)cn12)Cc1ccco1 | Active |  | inactive | Active |  | Dose-dependent effect | 
22 | O=C1NC(=O)N(Cc2ccco2)C(=O)/C1=C\c1ccc(-c2ccc(Cl)c([N+](=O)[O-])c2)o1 | Active |  | inactive | Active |  | Dose-dependent effect | 
23 | O=C(CSc1nc2c([nH]c3ccccc32)c(=O)n1-c1ccccc1)N1CCN(c2ccccc2)CC1 | Active |  | inactive | Active |  | Dose-dependent effect | 
24 | CCc1ccc(NS(=O)(=O)c2ccc(N3C(=O)c4cc([N+](=O)[O-])cc5cc([N+](=O)[O-])cc(c45)C3=O)cc2)cc1 | Active |  | inactive | Active |  | Dose-dependent effect | 
25 | O=C1OC(c2ccccc2)OC(=O)C1=Cc1ccc(-c2cc([N+](=O)[O-])ccc2Cl)o1 (stereo not given) | Active |  | inactive | Active |  | Dose-dependent effect | 
26 | O=C1NC(=S)NC(=O)C1=Cc1cn(-c2ccccc2)nc1-c1cc2c(ccc3ccccc32)oc1=O | Active |  | inactive | Active |  | Dose-dependent effect | 
27 | O=C1/C(=C/c2ccc(O)c(O)c2)SC(=S)N1c1ccc([N+](=O)[O-])cc1 | Active |  | inactive | Active |  | Dose-dependent effect | 
